{
  "source": "patent US20200270216A1",
  "about": "“COMPOSITIONS AND METHODS FOR INHIBITING N-SMASE2” (The Regents of the University of California, priority 2017, published 2020)",
  "format_in_all_cases": "cell-based",
  "key": {"[1]": {"tested_on": "HEK293T Tau RD P301S FRET biosensor cells", "assay": "D+R functional assay: tau seed transfer from P2-seeded donor cells to DiD-labeled recipient cells", "conditions": "D+R model, flow cytometry (FIG. 4C)", "procedure": "The compounds disclosed herein were further evaluated in the functional assays (“D+R approach”). The assays were based on the use of two cell populations—donor cells (D) and recipient cells (R). Recipients express a specific signal upon accumulation of protein aggregates (for example, FRET signal). The D+R approach can be divided into four steps (FIG. 4A).\nIn step 1, donor and recipient cells were plated in separation and protein aggregation is induced in the donor cells by using tissue-derived or synthetic proteopathic seeds (“seeding”) or by chemical and/or genetic methods. In step 2, either donor cells or recipient cells were labeled with a lipophilic dye (or by other cell labeling technology) in order to be able to distinguish between donor and recipients cells after trypsinization and re-plating of the donor and recipient cells together in step 3 (R+D). Alternatively, donor and recipient cells were physically divided by a permeable support (for example, Transwell). In any scenario, the cells were connected through the media and they grow for 24-60 hours with or without addition of pre-selected compounds. Efficiency of proteopathic seed transmission from donor cells to recipient cells can be analyzed using microscopy, flow cytometry, or imaging flow cytometry. […] Treatment of the tau biosensor cells with tau seeds lead to RD aggregation, as a result, CFP and YFP molecules come into close proximity and a FRET signal can be generated in the CFP/YFP pair upon illumination. The far-red fluorescent, lipophilic carbocyanine dye, DiD, was used for labeling recipient cells. This dye allowed for distinguishing between the DiD-negative donor and the DiD positive recipient cells without interference with the CFP/YFP FRET signal. The representative images of DiD-negative FRETpositive donor cell seeded with P2-derived tau seeds), DiD-positive FRET-negative recipient cell (DiD-R), and DiD positive FRET-positive recipient cell, which were growing in the presence of P2-D (DiD-R/R+D) are presented at the FIG. 4B. […]"}, "[2]": {"tested_on": "HEK293T Tau RD P301S FRET biosensor cells", "assay": "EV-mediated tau transfer assay", "procedure": "For EV (extracellular vesicles)-mediated tau transfer assay, donor cells, transduced with AD-brain derived synaptosomal extracts (P2) or synthetic K18 seeds, were cultured for 48 hours in exosome-free medium with or without indicated concentration of tested compounds or DMSO for control, then medium was collected and EVs were purified using Exo-Quick-TC exosome purification kit (SBI, EXOTC10A-1) according to the manufacturing instructions. Naive recipient cells were plated at density 30,000 cells per well (96-well plates), grown for 12 hour in regular medium and then medium was exchanged to exosome-depleted medium, contained exosomes purified from donor cells (each well of recipients received amount of exosomes purified from one well of donor cells). Recipient cells were cultured in the presence of donor cell exosomes for 60 hrs. EV-mediated transfer assay scheme is presented at the FIG. 5A (right).\nHEK293T Tau RD P301S FRET biosensor cells were growing in the Dulbecco's Modified Eagle's medium (DMEM) with higher glucose, 10% FBS, and 1% Penicillin-streptomycin at 37° C./5% CO2. Cells were plated in 10-sm dishes (3 million cells per dish in the regular medium) and grown for 12 hrs. Cells assigned to be donors were transduced with pulled synaptosomal (P2) extracts from AD cases using lipofectamine 2000, according to the published literature with minor modifications. We used 35 μg of pulled AD or control (NL) material per one 10-sm dish (TableS1). Defrosted P2 extracts were sonicated in water bath sonicator for 10 minutes, and diluted with Opti-MEM serum reduced medium to the final volume 200 μL per 10-sm dish. In a separate tube lipofectamine 2000 were combined with Opti-MEM medium, based on 25 μl of lipofectamine and 175 μL OptiMEM medium per each 10-sm dish, and incubated for 10 minutes at room temperature (RT). Each P2 or NL extract mix (200 μl) and prepared lipofectamine 2000 mix (200 μl) were combined and incubated for 20 min at RT. Each 10-sm dish with cell received 400 μl of the final liposomes in the total volume of medium 5 ml per dish. Cultures treated with equal amount of empty liposomes were used as an additional control group. Cells were incubated with liposomes for 20 hrs.\nFor “D+R” assay recipient cells were labeled with 1,1′-Dioctadecyl-3,3,3′,3′-tetramethylindodicarbocyanine (DiD) according to manufacturer's protocol (ThermoFisher V22887) on day 2. On day 3, donor cells were trypsinized (0.05% Trypsin/EDTA), washed with fresh exosome-free medium contained 10% of exosome-depleted FBS (ThermoFisher, A2720803). DiD-labeled recipient cells were also trypsinized and washed in exosome-free medium. […] FRET signal was detected using LSRII flow cytometer (BD biosciences). […]"}, "[3]": {"tested_on": "P2-seeded tau biosensor cells", "assay": "EV purification and characterization (immunoblot of exosome markers, nanoparticle tracking analysis)", "conditions": "50 μM, 48 hours, nanoparticle tracking analysis", "excerpt": "Extracellular vesicles (EVs) were purified from the cell culture medium using Exo-Quick-TC exosome purification kit (SBI, EXOTC10A-1) according to the manufacturing instructions. Immunoblot analysis of the EV fractions was done by 10-20% Tris-Glycine gel in non-reduced conditions, transferred to PVDF membrane and probed with antibodies against CD63 (ThermoFisher, 10628D), followed by HRP-conjugated secondary antibodies. Chemiluminescent signals were obtained with Super Signal West Femto substrate (Thermo Scientific Pierce 34,095) and detected using a BioSpectrum 600 imaging system and quantified using VisionWorks Version 6.6A software (UVP; Upland, Calif.). […] Inhibition of nSMase2 activity in cell extracts of confluent tau biosensors was confirmed by nSMase2 activity assay analogous to the one described in Example 2.\nOur analysis confirmed that nSMase2 inhibitors suppress release of EVs from P2-seeded tau biosensor cells. […] EV samples purified from the same number of donor cells were analyzed per each group. Purified EVs were imaged by transmission electron microscopy (FIG. 5C). Size distribution of particles in the samples were assessed by nanoparticle tracking analysis (FIG. 5D). WB analysis for exosome markers also confirmed decrease in the exosome-specific marker expression (FIG. 5E).\nDonor cells were grown in medium with exosome-depleted FBS (ThermoFisher, A2720803) for 48 hours with or without compounds, cell culture medium was collected and EVs purified using ExoQuick-TC kit (SBI biosciences). For quality control, small amounts of purified EVs were fixed on a copper mesh in glutaraldehyde/paraformaldehyde solution, stained with 2% uranyl acetate solution and imaged on a JEOL 100CX electron microscope at 29,000 times magnification. […] Chemiluminescent signals were obtained with Super Signal West Femto substrate (Thermo Scientific Pierce 34095) and detected using a BioSpectrum 600 imaging system and quantified using VisionWorks Version 6.6A software (UVP; Upland, Calif.)."}},
  "data": [
    {"compound": "O=C(/C=C/c1ccc(/C=C/C(=O)Nc2ccc(C3=NCCN3)cc2)cc1)Nc1ccc(C2=NCCN2)cc1", "note": "[GW4869]", "values": [
      {"measurement": "tau seed transmission from donor cells to recipient cells", "setting": "[1]", "result": "restrained tau seed transmission from the donor cells to the recipient cells in a dose-dependent manner"},
      {"measurement": "EV-mediated transfer of tau to recipient cells", "setting": "[2]; P2-seeded donor cells treated at 50 μM, 48 hours", "result": "decrease"},
      {"measurement": "reduction of EV-mediated transfer of tau seeds to naive recipient cells", "setting": "[2]; inhibitor treatment of donor cells", "result": 2.6, "unit": "times"},
      {"measurement": "release of EVs from P2-seeded donor cells", "setting": "[3]", "result": "released less EVs"}
    ]}
  ]
}
